In the Deep4Chem optical property database:
One block for each compound: values may come before it.

Assay: solvent given as SMILES

SMILES: COc1cc2cc(C#Cc3ccc(/C=C(\C#N)C(=O)O)cc3)c(=O)oc2cc1OC
emission maximum (in CC#N): 464 nm

SMILES: Cc1ccc(-n2c(-c3cccc4cc[n-]c34)[nH+]c3c4ccccc4c4ccccc4c32)cc1
emission maximum (in Cc1ccccc1): 566 nm

SMILES: N#Cc1ccc(C#Cc2ncc(-c3ccccc3)o2)cc1
emission maximum (in ClCCl): 410 nm

SMILES: Nc1ccc2c(c1)C(=O)NC2=O
emission maximum (in C1CCOC1): 445 nm
emission maximum (in C1COCCO1): 435 nm
emission maximum (in CC#N): 458 nm
emission maximum (in CC(C)(C)O): 501 nm
emission maximum (in CC(C)=O): 457 nm
emission maximum (in CC(C)O): 505 nm
emission maximum (in CCO): 520 nm
emission maximum (in CCOCC): 425 nm
emission maximum (in CN(C)C=O): 470 nm
emission maximum (in CO): 518 nm
emission maximum (in O): 540 nm

SMILES: COc1ccc(-n2c(-c3ccc(-c4cncc5ccccc45)cc3)nc3c4ccccc4c4ccccc4c32)cc1
emission maximum (in C1CCOC1): 429 nm

SMILES: N#Cc1ccc2c(c1)C1(c3cc(C#N)ccc3-2)c2ccccc2N(c2ccccc2)c2ccccc21
emission maximum (in Cc1ccccc1): 492.18 nm

SMILES: CC(C)c1cccc(C(C)C)c1-n1c(=O)c2cc3nc(-c4ccccc4)c4cc5c(=O)n(-c6c(C(C)C)cccc6C(C)C)c(=O)c6cc7c(-c8ccccc8)nc8cc(c1=O)c2c1c3c4c(c56)c7c81
emission maximum (in ClC(Cl)Cl): 488 nm

SMILES: CCOc1cc2c(cc1/C=C/C1=CC(=C(C#N)C#N)CC(C)(C)C1)c1ccccc1n2CC
emission maximum (in C1CCOC1): 610 nm
emission maximum (in CC#N): 629 nm
emission maximum (in CCO): 632 nm
emission maximum (in CCOC(C)=O): 591 nm
emission maximum (in CN(C)C=O): 635 nm
emission maximum (in CS(C)=O): 641 nm
emission maximum (in Cc1ccccc1): 578 nm
emission maximum (in ClC(Cl)Cl): 608 nm
emission maximum (in ClCCl): 617 nm

SMILES: CN(C)c1ccc2nc(-c3ccc(C(=O)OC[C@H](NC(=O)OC(C)(C)C)C(=O)OCc4ccccc4)cc3)sc2c1
emission maximum (in C1CCCCC1): 456 nm
emission maximum (in CC#N): 568 nm
emission maximum (in CC(C)O): 558 nm
emission maximum (in CO): 577 nm
emission maximum (in CS(C)=O): 583 nm
emission maximum (in ClC(Cl)Cl): 504 nm
emission maximum (in c1ccccc1): 484 nm

SMILES: C(=C\c1nc2ccccc2s1)/c1ccc(-c2nc3c4cccnc4c4ncccc4c3[nH]2)cc1
emission maximum (in C1CCOC1): 469 nm
emission maximum (in CC#N): 485 nm
emission maximum (in CO): 488 nm
emission maximum (in ClCCl): 472 nm

SMILES: CCCC1=Cc2nc1ccc1[nH]c(cc1CCC)c1nc(c(OC)cc3[nH]c2cc3CCC)C(CCC)=C1
emission maximum (in Cc1ccccc1): 688 nm

SMILES: CN1C(=CC2=C([O-])C(=Cc3sc4ccccc4[n+]3C)C2=C(C#N)C#N)Sc2ccccc21
emission maximum (in ClC(Cl)Cl): 723 nm

SMILES: c1ccc(-c2ccc(-c3nc(-n4c5ccccc5c5ccc6c7ccccc7n(-c7ccccc7)c6c54)nc(-n4c5ccccc5c5ccc6c7ccccc7n(-c7ccccc7)c6c54)n3)cc2)cc1
emission maximum (in Cc1ccccc1): 495 nm
emission maximum (in O=P(c1ccccc1)(c1ccccc1)c1ccccc1Oc1ccccc1P(=O)(c1ccccc1)c1ccccc1): 492 nm

SMILES: CN(C)c1ccc(C2=Nc3scc(-c4ccc([N+](=O)[O-])cc4)[n+]3[B-](F)(F)O2)cc1
emission maximum (in C1CCOC1): 454 nm
emission maximum (in CC#N): 453 nm
emission maximum (in Cc1ccccc1): 447 nm
emission maximum (in ClCCl): 454 nm

SMILES: CC1(C)C(/C=C/C2=C(Cl)C(=C/C=C3/N(Cc4ccc(F)cc4)c4ccccc4C3(C)C)/CCC2)=[N+](Cc2ccc(F)cc2)c2ccccc21
emission maximum (in CO): 809 nm

SMILES: c1ccc2c(-c3nc4sc5ccccc5c4s3)cccc2c1
emission maximum (in CS(C)=O): 447 nm

SMILES: O=c1oc2c(ccc3cc(O)ccc32)nc1-c1ccccc1
emission maximum (in c1ccccc1): 487 nm

SMILES: FC(F)(F)c1c(-n2c3ccccc3c3ccccc32)c(-n2c3ccccc3c3ccccc32)cc(-n2c3ccccc3c3ccccc32)c1-n1c2ccccc2c2ccccc21
emission maximum (in ClCCl): 440 nm

SMILES: O=S(=O)([O-])c1ccc(/C=C/c2ccc(-c3nnc(-c4ccc(/C=C/c5ccc(S(=O)(=O)[O-])cc5S(=O)(=O)[O-])cc4)o3)cc2)c(S(=O)(=O)[O-])c1
emission maximum (in C1CCOC1): 416 nm
emission maximum (in CC(C)=O): 415 nm
emission maximum (in CN(C)C=O): 430 nm

SMILES: COc1ccccc1CC(=O)OCc1c(C)c(=O)n2c(=O)c(C)c(C)n12
emission maximum (in CCO): 461 nm

SMILES: Cc1ccc2c(c1)c1cc(C)ccc1n2-c1c(-n2c3ccccc3c3ccccc32)c(C#N)c(-n2c3ccccc3c3ccccc32)c(-n2c3ccc(C)cc3c3cc(C)ccc32)c1-n1c2ccccc2c2ccccc21
emission maximum (in Cc1ccccc1): 480 nm

SMILES: COc1ccc(/C=C/c2nc3ccccc3s2)cc1
emission maximum (in C1CCCCC1): 400 nm
emission maximum (in CO): 420 nm

SMILES: O=Cc1nc2ccc(C#Cc3ccc(N(c4ccc(C#Cc5ccc6nc(C=O)sc6c5)cc4)c4ccc(C#Cc5ccc6nc(C=O)sc6c5)cc4)cc3)cc2s1
emission maximum (in Cc1ccccc1): 500 nm

SMILES: CCN(CC)c1ccc2c(C#N)c(/C=C(\C#N)c3nc4ccccc4s3)c(=O)oc2c1
emission maximum (in C1COCCO1): 647 nm
emission maximum (in CC#N): 679 nm
emission maximum (in CCO): 692 nm
emission maximum (in CCOC(C)=O): 664 nm
emission maximum (in CO): 701 nm
emission maximum (in Cc1ccccc1): 637 nm
emission maximum (in ClCCl): 666 nm

SMILES: COc1ccc(C2=[N+]3C(=Nc4c(-c5ccc6ccccc6c5)c(Br)c(-c5ccc(OC)cc5)n4[B-]3(F)F)C(c3ccc4ccccc4c3)=C2Br)cc1
emission maximum (in ClCCl): 734 nm

SMILES: O=Cc1ccc(C#CC(C#Cc2ccc(C=O)o2)=Cc2ccc(C=C(C#Cc3ccc(C=O)o3)C#Cc3ccc(C=O)o3)s2)o1
emission maximum (in ClC(Cl)Cl): 577 nm

SMILES: CCOC(=O)c1ccc(C2CC(c3cccc4ccccc34)=NN2c2ccc(OC)cc2)cc1 (stereo not drawn)
emission maximum (in ClCCl): 505 nm

SMILES: COc1cccc(OC)c1-c1c2ccccc2c(-c2c(OC)cccc2OC)c2ccccc12
emission maximum (in C1CCCCC1): 425 nm

SMILES: Cc1ccc(C2=C3C=C(I)C(I)=[N+]3[B-](F)(F)n3c2cc(I)c3I)cc1
emission maximum (in C1CCCCC1): 593 nm
emission maximum (in CC#N): 591 nm
emission maximum (in CCO): 595 nm
emission maximum (in CCOC(C)=O): 591.5 nm
emission maximum (in CO): 593.5 nm
emission maximum (in OCC(F)(F)F): 588 nm

SMILES: CCCCN(CCCC)c1ccc(/C=C/c2ccc3nc(-c4ccccc4)c(/C=C/c4ccc(N(C)C)cc4)nc3c2)cc1
emission maximum (in C1COCCO1): 540 nm
emission maximum (in CC#N): 650 nm
emission maximum (in ClCCl): 627 nm

SMILES: CCCCCCCC[n+]1ccc(-c2cc[n+](CCCCCCCC)cc2)cc1
emission maximum (in CC#N): 353 nm

SMILES: CN(C)CCCN1c2ccccc2Sc2ccccc21
emission maximum (in CC#N): 444 nm
emission maximum (in CO): 444 nm
emission maximum (in O): 452 nm

SMILES: CC1=CC(C)=[N+]2C1=C(c1ccc(C(=O)OC3C[C@@H]4CC[C@]3(C)C4(C)C)cc1)c1c(C)cc(C)n1[B-]2(F)F (stereo partly drawn)
emission maximum (in Cc1ccccc1): 518 nm

SMILES: CCN(CC)c1ccc2c(c1)oc(=O)c1cc3c(-c4ccccc4)nn(C)c3nc12
emission maximum (in ClCCl): 506 nm

SMILES: COc1ccc(/C=C/C(=O)c2ccccc2O)cc1OC
emission maximum (in C1COCCO1): 425 nm
emission maximum (in CC#N): 436 nm
emission maximum (in CCCO): 495 nm
emission maximum (in CCO): 500 nm
emission maximum (in CN(C)C=O): 473 nm
emission maximum (in CO): 510 nm
emission maximum (in CS(C)=O): 480 nm
emission maximum (in ClC(Cl)Cl): 462 nm
emission maximum (in ClCCl): 460 nm

SMILES: Cc1ccc(S(=O)(=O)Nc2c(/C=C/c3ccccc3)sc(-c3ccc(N(C)C)cc3)c2-c2ccsc2)cc1
emission maximum (in CC#N): 627 nm

SMILES: F[B-]1(F)OC(c2ccc(C(F)(F)F)cc2)=Cc2c3ccccc3c3ccccc3[n+]21
emission maximum (in ClC(Cl)Cl): 446 nm

SMILES: Cn1ccc(-n2cncn2)nc1=O
emission maximum (in O): 366 nm

SMILES: c1ccc(-c2nc(-c3ccc(N4CCCC4)cc3)cc(-c3ccc4ccccc4c3)n2)cc1
emission maximum (in ClC(Cl)Cl): 498 nm

SMILES: CC[C@H](C)COc1ccc(C2=C3C(C)=C(c4ccc5ccc6cccc7ccc4c5c67)C(C)=[N+]3[B-](F)(F)n3c(C)c(-c4ccc5ccc6cccc7ccc4c5c67)c(C)c32)cc1
emission maximum (in ClCCl): 585 nm

SMILES: NS(=O)(=O)c1ccc(N2N=C(c3ccc(O)cc3)CC2c2ccc([N+](=O)[O-])cc2)cc1 (stereo not drawn)
emission maximum (in C1CCOC1): 420 nm
emission maximum (in C1COCCO1): 417 nm
emission maximum (in CC#N): 419 nm
emission maximum (in CC(C)O): 421 nm
emission maximum (in CCO): 422 nm
emission maximum (in CCOC(C)=O): 417 nm
emission maximum (in CN(C)C=O): 422 nm
emission maximum (in CO): 434 nm
emission maximum (in CS(C)=O): 425 nm
emission maximum (in O): 451 nm

Second part, the compound after the results:

emission maximum (in ClC(Cl)Cl): 463.2 nm
SMILES: F[B-]1(F)OC(c2ccccc2)=Cc2c3ccccc3cc[n+]21

emission maximum (in ClC(Cl)Cl): 661 nm
SMILES: CCCCCCCCCCCCOc1cc2c3cc(OCCCCCCCCCCCC)c(OCCCCCCCCCCCC)cc3c3c(cc(OCCCCCCCCCCCC)c4nc5cc(C#Cc6ccc(OCCCC)cc6)c(C#Cc6ccc(OCCCC)cc6)cc5nc43)c2cc1OCCCCCCCCCCCC

emission maximum (in CO): 623 nm
SMILES: CN1C(=CC=Cc2nc3nc4ccccc4nc3s2)C(C)(C)c2ccccc21

emission maximum (in C1CCOC1): 526 nm
SMILES: N#Cc1c(N2CCCCC2)cc(-c2cccc3ccccc23)c2c1-c1ccccc1C2=O

emission maximum (in CS(C)=O): 569 nm
SMILES: CN1/C(=C/C=C/C2=[N+](C)c3ccccc3C2(C)C)Sc2ccccc21

emission maximum (in ClCCl): 466 nm
SMILES: COc1ccc(C#Cc2c(C#Cc3ccc(OC)cc3)c(C#Cc3ccc(OC)cc3)c(C#Cc3ccc(OC)cc3)c(C#Cc3ccc(OC)cc3)c2C#Cc2ccc(OC)cc2)cc1

emission maximum (in ClCCl): 550 nm
SMILES: CN(C)c1ccc(/C=C/c2cnc(-c3ccncc3)o2)cc1

emission maximum (in ClC(Cl)Cl): 673 nm
SMILES: F[B-]1(F)n2c(cc3sc4ccccc4c32)C(c2ccc(I)cc2)=C2C=c3sc4ccccc4c3=[N+]21

emission maximum (in ClCCl): 568 nm
SMILES: Cc1cc(C)c(C2=C3C=C(/C=C/C(=O)OCc4ccccc4)C=[N+]3[B-](F)(F)n3cccc32)c(C)c1

emission maximum (in C1CCOC1): 406 nm
SMILES: CCCCC1(CCCC)c2cc(C#Cc3ccc(C=C4c5ccccc5CCc5ccccc54)cc3)ccc2-c2ccc(C#Cc3ccc(C=C4c5ccccc5CCc5ccccc54)cc3)cc21

emission maximum (in ClC(Cl)Cl): 434 nm
SMILES: COc1ccc2cc(-c3ccc(-c4cc5ccc(OC)cc5oc4=O)cc3)c(=O)oc2c1

emission maximum (in C1CCOC1): 387 nm
SMILES: c1cc2c3c(c1)-c1cccc4ccn(c14)B3n1ccc3cccc-2c31

emission maximum (in CO): 396 nm
SMILES: Brc1cnc(-c2ccncc2)s1

emission maximum (in C1COCCO1): 590 nm
emission maximum (in CN(C)C=O): 607 nm
emission maximum (in CO): 624 nm
emission maximum (in CS(C)=O): 614 nm
emission maximum (in c1ccccc1): 598 nm
SMILES: O=C1/C(=C2\Sc3ccccc3C2=O)Sc2ccccc21

emission maximum (in CC#N): 406 nm
SMILES: O=c1oc2ccccc2cc1C#Cc1ccccc1

emission maximum (in ClCCl): 538 nm
SMILES: CC1=NN(c2cccc3ccccc23)[B-](F)(F)[n+]2ccccc21

emission maximum (in ClCCl): 506 nm
SMILES: COc1ccc(/C=C/C2=CC(c3ccccc3)=[O+][B-](F)(F)O2)cc1
